pIC50: −log10 of the molar value. Square brackets hold non-standard residues; d marks the D form. Peptide text beside a SMILES is read from it. NMeL = CN[C@@H](CC(C)C)C(=O)O; NMeV = CN[C@H](C(=O)O)C(C)C; Nva = CCC[C@H](N)C(=O)O; Sar = CNCC(=O)O
Tests used:
CYP1A2 = target: T1, CYP1A2 (Homo sapiens, UniProt P05177); assay: Inhibition of human CYP1A2 at 10 uM preincubated for 10 mins followed by NADPH addition and measured after 20 mins by luciferin reagent based luminescence analysis; format: ADME; details: time 30 min
T1 sequence (P05177 whole entry): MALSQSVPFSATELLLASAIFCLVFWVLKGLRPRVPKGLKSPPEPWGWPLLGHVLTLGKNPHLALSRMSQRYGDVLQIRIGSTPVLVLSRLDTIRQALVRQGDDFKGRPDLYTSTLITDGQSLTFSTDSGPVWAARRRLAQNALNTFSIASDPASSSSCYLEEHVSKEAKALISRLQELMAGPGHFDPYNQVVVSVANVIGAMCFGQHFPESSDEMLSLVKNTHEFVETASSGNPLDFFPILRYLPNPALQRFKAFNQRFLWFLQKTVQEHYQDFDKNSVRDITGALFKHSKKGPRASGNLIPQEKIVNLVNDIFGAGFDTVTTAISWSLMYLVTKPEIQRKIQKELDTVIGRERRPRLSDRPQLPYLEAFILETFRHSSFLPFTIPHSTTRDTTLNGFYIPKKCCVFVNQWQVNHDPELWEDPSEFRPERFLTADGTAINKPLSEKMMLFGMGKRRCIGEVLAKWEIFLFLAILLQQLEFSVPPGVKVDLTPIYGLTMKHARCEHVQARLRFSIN

Hepatitis B virus [1] = assay: Antiviral activity against Hepatitis B virus infected in human HepG2 cells expressing NTCP assessed as inhibition of viral entry by measuring intracellular HBV DNA at 1 uM preincubated with compound for 2 hrs followed by viral infection and measured after 3 hrs by qPCR analysis relative to control; format: functional; details: time 5 hrs
Hepatitis B virus [2] = assay: Antiviral activity against Hepatitis B virus infected in human HepG2 cells expressing NTCP assessed as inhibition of viral entry by measuring intracellular HBV DNA preincubated with compound for 2 hrs followed by viral infection and measured after 3 hrs by qPCR analysis; format: functional, organism-based
[3] = Cytotoxicity against human HepG2 cells assessed as reduction in cell viability incubated for 24 hrs by MTS assay; format: toxicity, cell-based; details: read-out: LC50
CYP2C9 = CYP2C9 (Homo sapiens, UniProt P11712); assay: Inhibition of human CYP2C9 at 10 uM preincubated for 10 mins followed by NADPH addition and measured after 20 mins by luciferin reagent based luminescence analysis; format: ADME; details: time 30 min
Sequence of CYP2C9 (P11712 whole entry): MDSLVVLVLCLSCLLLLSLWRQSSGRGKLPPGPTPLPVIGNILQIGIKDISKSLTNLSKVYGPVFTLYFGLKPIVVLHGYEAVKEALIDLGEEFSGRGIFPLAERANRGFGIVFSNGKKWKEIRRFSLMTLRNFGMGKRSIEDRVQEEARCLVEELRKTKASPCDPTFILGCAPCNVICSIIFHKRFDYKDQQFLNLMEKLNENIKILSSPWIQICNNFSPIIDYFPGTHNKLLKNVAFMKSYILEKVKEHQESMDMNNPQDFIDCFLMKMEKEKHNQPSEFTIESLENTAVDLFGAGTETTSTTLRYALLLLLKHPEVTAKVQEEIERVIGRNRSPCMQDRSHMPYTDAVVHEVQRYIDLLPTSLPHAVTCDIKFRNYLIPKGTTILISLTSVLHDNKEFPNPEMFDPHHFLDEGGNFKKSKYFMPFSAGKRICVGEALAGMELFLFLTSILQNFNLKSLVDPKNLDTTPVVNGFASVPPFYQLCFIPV

SMILES	inhibition at 1 µM (Hepatitis B virus [1])	other results
O=c1cc(-c2ccccc2)oc2c1ccc1ccccc12 [ALPHA-NAPHTHOFLAVONE]		inhibition at 20 min, 10 µM (CYP1A2): 97.1%
CCC[C@@H]1NC(=O)[C@H](CC(C)C)N(C)C(=O)[C@H](CC(C)C)N(C)C(=O)[C@H](CC(C)C)N(C)C(=O)CN(CCOC)C(=O)[C@@H](C)NC(=O)[C@@H](CCC(N)=O)NC(=O)[C@H](CC(C)C)N(C)C(=O)[C@H](C(C)C)NC(=O)[C@H](CC(C)C)N(C)C(=O)CN(C)C1=O	72%	
CCC[C@@H]1NC(=O)[C@H](CC(C)C)N(C)C(=O)[C@H](CC(C)C)N(C)C(=O)[C@H](CC(C)C)N(C)C(=O)CN(CCCCN)C(=O)[C@@H](C)NC(=O)[C@@H](CCC(N)=O)NC(=O)[C@H](CC(C)C)N(C)C(=O)[C@H](C(C)C)NC(=O)[C@H](CC(C)C)N(C)C(=O)CN(C)C1=O	69%	
C/C=C/C[C@@H](C)[C@@H](O)[C@H]1C(=O)N[C@@H](CC)C(=O)N(C)CC(=O)N(C)[C@@H](CC(C)C)C(=O)N[C@@H](C(C)C)C(=O)N(C)[C@@H](CC(C)C)C(=O)N[C@@H](C)C(=O)N[C@H](C)C(=O)N(C)[C@@H](CC(C)C)C(=O)N(C)[C@@H](CC(C)C)C(=O)N(C)[C@@H](C(C)C)C(=O)N1C [CYCLOSPORINE]	83%	pIC50 (Hepatitis B virus [2]): 6.40
CCC[C@@H]1NC(=O)[C@H](CC(C)C)N(C)C(=O)[C@H](CC(C)C)N(C)C(=O)[C@H](CC(C)C)N(C)C(=O)[C@H](CC(C)C)N(C)C(=O)[C@@H](C)NC(=O)[C@@H](CCC(N)=O)NC(=O)[C@H](CC(C)C)N(C)C(=O)[C@H](C(C)C)NC(=O)CN(CCOC)C(=O)CN(C)C1=O	67%	
CCC[C@@H]1NC(=O)[C@H](CC(C)C)N(C)C(=O)[C@H](CC(C)C)N(C)C(=O)[C@H](CC(C)C)N(C)C(=O)CN(CCC(=O)O)C(=O)[C@@H](C)NC(=O)[C@@H](CCC(N)=O)NC(=O)[C@H](CC(C)C)N(C)C(=O)[C@H](C(C)C)NC(=O)[C@H](CC(C)C)N(C)C(=O)CN(C)C1=O	84%	pIC50 (Hepatitis B virus [2]): 6.35; CC50 at 24 h [3]: > 200 µM
CCC[C@@H]1NC(=O)[C@H](CC(C)C)N(C)C(=O)[C@H](CC(C)C)N(C)C(=O)[C@H](CC(C)C)N(C)C(=O)[C@H](CC(C)C)N(C)C(=O)[C@@H](C)NC(=O)[C@@H](CCC(N)=O)NC(=O)[C@H](CC(C)C)N(C)C(=O)[C@H](C(C)C)NC(=O)CN(CC(C)C)C(=O)CN(C)C1=O	85%	pIC50 (Hepatitis B virus [2]): 6.38
CCC[C@@H]1NC(=O)[C@H](CC(C)C)N(C)C(=O)[C@H](CC(C)C)N(C)C(=O)CN(CC(C)C)C(=O)[C@H](CC(C)C)N(C)C(=O)[C@@H](C)NC(=O)[C@@H](CCC(N)=O)NC(=O)[C@H](CC(C)C)N(C)C(=O)[C@H](C(C)C)NC(=O)[C@H](CC(C)C)N(C)C(=O)CN(C)C1=O	65%	
CCC[C@@H]1NC(=O)[C@H](CC(C)C)N(C)C(=O)[C@H](CC(C)C)N(C)C(=O)[C@H](CC(C)C)N(C)C(=O)CN(CCO)C(=O)[C@@H](C)NC(=O)[C@@H](CCC(N)=O)NC(=O)[C@H](CC(C)C)N(C)C(=O)[C@H](C(C)C)NC(=O)[C@H](CC(C)C)N(C)C(=O)CN(C)C1=O	59%	
CCC[C@@H]1NC(=O)[C@H](CC(C)C)N(C)C(=O)[C@H](CC(C)C)N(C)C(=O)[C@H](CC(C)C)N(C)C(=O)[C@H](CC(C)C)N(C)C(=O)[C@@H](C)NC(=O)[C@@H](CCC(N)=O)NC(=O)[C@H](CC(C)C)N(C)C(=O)[C@H](C(C)C)NC(=O)CN(Cc2ccccc2)C(=O)CN(C)C1=O	36%	
CCC[C@@H]1NC(=O)[C@H](CC(C)C)N(C)C(=O)[C@H](CC(C)C)N(C)C(=O)[C@H](CC(C)C)N(C)C(=O)CN(C)C(=O)[C@@H](C)NC(=O)[C@@H](CCC(N)=O)NC(=O)[C@H](CC(C)C)N(C)C(=O)[C@H](C(C)C)NC(=O)[C@H](CC(C)C)N(C)C(=O)CN(C)C1=O	64%	
CCC[C@@H]1NC(=O)[C@H](CC(C)C)N(C)C(=O)[C@H](CC(C)C)N(C)C(=O)[C@H](CC(C)C)N(C)C(=O)CN(Cc2ccccc2)C(=O)[C@@H](C)NC(=O)[C@@H](CCC(N)=O)NC(=O)[C@H](CC(C)C)N(C)C(=O)[C@H](C(C)C)NC(=O)[C@H](CC(C)C)N(C)C(=O)CN(C)C1=O	69%	
CCC[C@@H]1NC(=O)[C@H](CC(C)C)N(C)C(=O)[C@H](CC(C)C)N(C)C(=O)CN(CCOC)C(=O)[C@H](CC(C)C)N(C)C(=O)[C@@H](C)NC(=O)[C@@H](CCC(N)=O)NC(=O)[C@H](CC(C)C)N(C)C(=O)[C@H](C(C)C)NC(=O)[C@H](CC(C)C)N(C)C(=O)CN(C)C1=O	52%	
CCC[C@@H]1NC(=O)[C@H](CC(C)C)N(C)C(=O)[C@H](CC(C)C)N(C)C(=O)[C@H](CC(C)C)N(C)C(=O)[C@H](CC(C)C)N(C)C(=O)[C@@H](C)NC(=O)[C@@H](CCC(N)=O)NC(=O)[C@H](CC(C)C)N(C)C(=O)[C@H](C(C)C)NC(=O)CN(CCC(=O)O)C(=O)CN(C)C1=O	61%	
CCC[C@@H]1NC(=O)[C@H](CC(C)C)N(C)C(=O)[C@H](CC(C)C)N(C)C(=O)CN(CCC(=O)O)C(=O)[C@H](CC(C)C)N(C)C(=O)[C@@H](C)NC(=O)[C@@H](CCC(N)=O)NC(=O)[C@H](CC(C)C)N(C)C(=O)[C@H](C(C)C)NC(=O)[C@H](CC(C)C)N(C)C(=O)CN(C)C1=O	63%	
CCC[C@@H]1NC(=O)[C@H](CC(C)C)N(C)C(=O)[C@H](CC(C)C)N(C)C(=O)CN(Cc2ccccc2)C(=O)[C@H](CC(C)C)N(C)C(=O)[C@@H](C)NC(=O)[C@@H](CCC(N)=O)NC(=O)[C@H](CC(C)C)N(C)C(=O)[C@H](C(C)C)NC(=O)[C@H](CC(C)C)N(C)C(=O)CN(C)C1=O	62%	
Nc1ccc(S(=O)(=O)Nc2ccnn2-c2ccccc2)cc1 [SULFAPHENAZOLE]		inhibition at 20 min, 10 µM (CYP2C9): 94.4%
CCC[C@@H]1NC(=O)[C@H](CC(C)C)N(C)C(=O)[C@H](CC(C)C)N(C)C(=O)CN(C)C(=O)[C@H](CC(C)C)N(C)C(=O)[C@@H](C)NC(=O)[C@@H](CCC(N)=O)NC(=O)[C@H](CC(C)C)N(C)C(=O)[C@H](C(C)C)NC(=O)[C@H](CC(C)C)N(C)C(=O)CN(C)C1=O	37%	
CCC[C@@H]1NC(=O)[C@H](CC(C)C)N(C)C(=O)[C@H](CC(C)C)N(C)C(=O)[C@H](CC(C)C)N(C)C(=O)[C@H](CC(C)C)N(C)C(=O)[C@@H](C)NC(=O)[C@@H](CCC(N)=O)NC(=O)[C@H](CC(C)C)N(C)C(=O)[C@H](C(C)C)NC(=O)CN(CCO)C(=O)CN(C)C1=O	66%	
CCC[C@@H]1NC(=O)[C@H](CC(C)C)N(C)C(=O)[C@H](C(C)C)N(C)C(=O)[C@H](CC(C)C)N(C)C(=O)[C@H](CC(C)C)N(C)C(=O)[C@@H](C)NC(=O)[C@@H](CCC(N)=O)NC(=O)[C@H](CC(C)C)N(C)C(=O)[C@H](C(C)C)NC(=O)[C@H](CC(C)C)N(C)C(=O)CN(C)C1=O	57%	
CCC[C@@H]1NC(=O)[C@H](CC(C)C)N(C)C(=O)[C@H](CC(C)C)N(C)C(=O)[C@H](CC(C)C)N(C)C(=O)[C@H](CC(C)C)N(C)C(=O)[C@@H](C)NC(=O)[C@@H](CCC(N)=O)NC(=O)[C@H](CC(C)C)N(C)C(=O)[C@H](C(C)C)NC(=O)CN(CCCCN)C(=O)CN(C)C1=O	71%	
CCC[C@@H]1NC(=O)[C@H](CC(C)C)N(C)C(=O)[C@H](CC(C)C)N(C)C(=O)[C@H](CC(C)C)N(C)C(=O)CN(CC(C)C)C(=O)[C@@H](C)NC(=O)[C@@H](CCC(N)=O)NC(=O)[C@H](CC(C)C)N(C)C(=O)[C@H](C(C)C)NC(=O)[C@H](CC(C)C)N(C)C(=O)CN(C)C1=O	62%	
CCC[C@@H]1NC(=O)[C@H](CC(C)C)N(C)C(=O)[C@H](C(C)C)N(C)C(=O)[C@H](CC(C)C)N(C)C(=O)[C@H](CC(C)C)N(C)C(=O)[C@@H](C)NC(=O)[C@H](C)NC(=O)[C@H](CC(C)C)N(C)C(=O)[C@H](C(C)C)NC(=O)[C@H](CC(C)C)N(C)C(=O)CN(C)C1=O (cyclo(A[dA][NMeL][NMeL][NMeV][NMeL][Nva][Sar][NMeL]V[NMeL]))	75%	pIC50 (Hepatitis B virus [2]): 6.29; CC50 at 24 h [3]: > 200 µM
CCC[C@@H]1NC(=O)[C@H](CC(C)C)N(C)C(=O)[C@H](CC(C)C)N(C)C(=O)CN(CCCCN)C(=O)[C@H](CC(C)C)N(C)C(=O)[C@@H](C)NC(=O)[C@@H](CCC(N)=O)NC(=O)[C@H](CC(C)C)N(C)C(=O)[C@H](C(C)C)NC(=O)[C@H](CC(C)C)N(C)C(=O)CN(C)C1=O	57%	
CCC[C@@H]1NC(=O)[C@H](CC(C)C)N(C)C(=O)[C@H](CC(C)C)N(C)C(=O)[C@H](CC(C)C)N(C)C(=O)[C@H](CC(C)C)N(C)C(=O)[C@@H](C)NC(=O)[C@H](CCC(N)=O)NC(=O)[C@H](CC(C)C)N(C)C(=O)[C@H](C(C)C)NC(=O)CN(C)C(=O)CN(C)C1=O	86%	pIC50 (Hepatitis B virus [2]): 6.36
